In US8906929B2, “Inhibitors of human immunodeficiency virus replication” (priority 2012, dated 2014):
Read-outs that look alike come from different tables or passages of the source.

Tests used:
[1] = rcm bond, DCE
[2] = test system: recombinant NL-Rluc virus; experiment: Inhibition of HIV replication (NL-RLuc virus in MT-2 cells, luciferase readout); format: cell-based; conditions: 5 days of incubation, 10% FBS
[3] = Human immunodeficiency virus 1, MT2, 120 h

COC(=O)[C@@H](OC(C)(C)C)c1c(C)nc2cc3nn2c1-c1cc(F)c2c(c1)N(CC=CCCc1ccccc1-c1cccc-3c1)CCO2
ring closure, isolated yield ([1]; from C=CCCc1ccccc1-c1cccc(-c2cc3nc(C)c([C@H](OC(C)(C)C)C(=O)OC)c(-c4cc(F)c5c(c4)N(CC=C)CCO5)n3n2)c1, 18-membered ring, Hoveyda-Grubbs II, 8.3 mM, 70.0 °C, 18.0 h): 54.5%

COC(=O)[C@@H](OC(C)(C)C)c1c(C)nc2cc3nn2c1N1CCC(C)(CC1)OCC=CC[C@H](C)Oc1ccccc1-c1cccc-3c1
ring closure, isolated yield ([1]; from C=CCOC1(C)CCN(c2c([C@H](OC(C)(C)C)C(=O)OC)c(C)nc3cc(-c4cccc(-c5ccccc5O[C@@H](C)CC=C)c4)nn23)CC1, 20-membered ring, Hoveyda-Grubbs II, 1.5 mM, 2.0 h): 70%

COC(=O)[C@@H](OC(C)(C)C)c1c(C)nc2cc3nn2c1N1CCC(C)(CC1)OCC=CC[C@H](C)Oc1ccc(F)cc1-c1cccc-3c1
ring closure, isolated yield ([1]; from C=CCOC1(C)CCN(c2c([C@H](OC(C)(C)C)C(=O)OC)c(C)nc3cc(-c4cccc(-c5cc(F)ccc5O[C@@H](C)CC=C)c4)nn23)CC1, 20-membered ring, Hoveyda-Grubbs II (20 mol%), then NaBH4/MeOH, 5.0 mM, 80.0 °C, 1.5 h, 2 steps): 38%

Methyl (2S)-2-(tert-butoxy)-2-[(24E/Z)-4,17,23,28-tetramethyl-21,27-dioxa-1,5,7,8-tetraazahexacyclo[26.2.2.1^6,^9.1^10,^14.0^2,^7.0^15,^20]tetratriaconta-2,4,6(34),8,10(33), 11,13,15 (20),16,18,24-undecaen-3-yl]acetate
ring closure, isolated yield ([1]; 20-membered ring, Hoveyda-Grubbs II (7 mol%), 4.0 mM, 85.0 °C): 70.6%

COC(=O)[C@@H](OC(C)(C)C)c1c(C)nc2cc3nn2c1-c1ccc2c(c1Cl)N(CC=CCCCOc1ccccc1-c1cccc-3c1)CCO2
ring closure, isolated yield ([1]; from C=CCCCOc1ccccc1-c1cccc(-c2cc3nc(C)c([C@H](OC(C)(C)C)C(=O)OC)c(-c4ccc5c(c4Cl)N(CC=C)CCO5)n3n2)c1, 20-membered ring, Hoveyda-Grubbs II, 27.0 mM, 50.0 °C, 3.0 h): 53.4%

COC(=O)[C@@H](OC(C)(C)C)c1c(C)nc2cc3nn2c1N1CCC(C)(CC1)OCC=CC[C@@H](C)Oc1ccccc1-c1cccc-3c1
ring closure, isolated yield ([1]; from C=CCOC1(C)CCN(c2c([C@H](OC(C)(C)C)C(=O)OC)c(C)nc3cc(-c4cccc(-c5ccccc5O[C@H](C)CC=C)c4)nn23)CC1, 20-membered ring, Hoveyda-Grubbs II, 1.43 mM, 2.0 h): 100%

COC(=O)[C@@H](OC(C)(C)C)c1c(C)nc2cc3nn2c1N1CCC(C)(CC1)COCC=CCCc1ccccc1-c1cccc-3c1
ring closure, isolated yield ([1]; from C=CCCc1ccccc1-c1cccc(-c2cc3nc(C)c([C@H](OC(C)(C)C)C(=O)OC)c(N4CCC(C)(COCC=C)CC4)n3n2)c1, 20-membered ring, Hoveyda-Grubbs II (10 mol%), 1.23 mM, 70.0 °C, 3.0 h): 98%

Cc1nc2cc3nn2c(c1[C@H](OC(C)(C)C)C(=O)O)-c1ccc2c(c1)[C@@H](CC=CCOc1ccccc1-c1cccc-3c1)CCO2 (single isomer, unassigned) [Example 14]
EC50 [2, 3]: 0.383 µM

(2S)-2-(tert-Butoxy)-2-[(22S)-4,17,22,29-tetramethyl-21,28-dioxa-1,5,7,8-tetraazahexacyclo[27.2.2.1^6,^9.1^10,^14.0^2,^7.0^15,^20]pentatriaconta-2,4, 6(35), 8, 10(34), 11, 13, 15 (20),16,18-decaen-3-yl]acetic acid [Example 65]
EC50 ([2]; read-out: EC50): 0.043 µM

Cc1nc2cc3nn2c(c1[C@H](OC(C)(C)C)C(=O)O)N1CCC(C)(CC1)OCCCCOc1cc(F)ccc1-c1cccc-3c1 [Example 49, (2S)-2-(tert-Butoxy)-2-{18-fluoro-4,27-dimethyl-21,26-dioxa-1,5,7,8-tetraazahexacyclo[25.2.2.1^6,^9.1^10,^14.0^2,^7.0^15,^20]tritriaconta-2,4,6(33),8,10(32),11,13,15(20),16,18-decaen-3-yl}acetic acid]
EC50 [2, 3]: 0.009 µM

Cc1nc2cc3nn2c(c1[C@H](OC(C)(C)C)C(=O)O)N1CCC(C)(CC1)OCCCC[C@H](C)Oc1ccc(F)cc1-c1cccc-3c1 [Example 81, (2S)-2-(tert-Butoxy)-2-[(22S)-17-fluoro-4,22,28-trimethyl-21,27-dioxa-1,5,7,8-tetraazahexacyclo[26.2.2.1^6,^9.1^10,^14.0^2,^7.0^15,^20]tetratriaconta-2,4,6(34),8,10(33),11,13, 15(20),16,18-decaen-3-yl]acetic acid]
EC50 [2, 3]: 0.013 µM

Cc1nc2cc3nn2c(c1[C@H](OC(C)(C)C)C(=O)O)N1CCC(C)(CC1)OCCCCCOc1ccccc1-c1cccc-3c1 [Example 27, (2S)-2-(tert-Butoxy)-2-{4,28-dimethyl-21,27-dioxa-1,5,7,8-tetraazahexacyclo[26.2.2.1^6,^9.1^10,^14.0^2,^7.0^15,^20]tetratriaconta-2,4,6(34),8,10(33),11,13,15(20),16,18-decaen-3-yl}acetic acid]
EC50 [2, 3]: 0.01 µM

Cc1nc2cc3nn2c(c1[C@H](OC(C)(C)C)C(=O)O)N1CCC(C)(CCCCCCc2ccncc2-c2cccc-3c2)CC1 [Example 52, (2S)-2-(tert-Butoxy)-2-{4,27-dimethyl-1,5,7,8,17-pentaazahexacyclo[25.2.2.1^6,^9.1^10,^14.0^2,^7.0^15,^20]tritriaconta-2,4,6(33),8,10(32),11,13,15(20),16,18-decaen-3-yl}acetic acid]
EC50 [2, 3]: 0.005 µM
